BindingDB's records for doi:10.1021/acs.jmedchem.2c02098 (University of Bologna, 2023)

Experiments:
[1] = target: Integrin alpha-L/beta-2 (LFA-1) (Homo sapiens); experiment: Agonist activity at alphaLbeta2 integrin receptor in human Jurkat E6.1 cells assessed as inhibition of ICAM-1-induced cell adhesion pre-incubated for 30 mins followed by 30 mins incubation in ICAM-1 coated wells by fluorescence plate reader assay
[2] = target: Integrin alpha5/beta1 (Homo sapiens); experiment: Agonist activity at alpha5beta1 integrin receptor in human K562 cells assessed as inhibition of fibronectin-induced cell adhesion pre-incubated for 30 mins followed by 1 hr incubation in fibronectin coated wells by fluorescence plate reader assay
[3] = target: Integrin alpha4/beta1 (Homo sapiens); experiment: Agonist activity at alpha4beta1 integrin receptor in human Jurkat E6.1 cells assessed as inhibition of fibronectin-induced cell adhesion pre-incubated for 30 mins followed by 30 mins incubation in fibronectin coated wells by fluorescence plate reader assay
[4] = target: Integrin alpha4/beta1 (Homo sapiens); experiment: Agonist activity at alpha4beta1 integrin receptor in human Jurkat E6.1 cells assessed as inhibition of vascular cell adhesion molecule 1-induced cell adhesion pre-incubated for 30 mins followed by 30 mins incubation in vascular cell adhesion molecule 1 coated wells by fluorescence plate reader assay

EC50 [1]	EC50 [2]	EC50 [3]	EC50 [4]	SMILES
> 5 µM	> 5 µM			Cc1ccccc1NC(=O)N1C(=O)CC1CC(=O)O (stereo not given)
> 5 µM		> 5 µM	> 5 µM	Cc1ccccc1NC(=O)N1C(=O)CC1CC(=O)NCC(=O)O (stereo not given)
